According to article PMC10223470 (Molecules, 2023):

Key:
Type in all cases: in vivo
mice [1] = assay: Motor coordination, rotarod test; settings: 25, 50 and 75 mg/kg i.p., 60 min before testing
Experimental: The experiments were carried out on 6 weeks old naive Swiss male mice (Experimental Medicine Center (OMD), Lublin, Poland), weighing 28–30 g. The cages with mice were located in air-conditioned rooms maintaining the ambient temperature within the range of 23–25 °C. The animals were provided with a natural 12 h day/night cycle, replicating the day and night mode. Each testing group was represented by 8–10 animals, depending on the research schedule. All experiments were conducted according to the National Institute of Health Guidelines for the Care and Use of Laboratory Animals (8th edition) and to the European Community Council Directive for the Care and Use of Laboratory Animals of 22 September 2010 (2010/63/EU) and were approved by the Local Ethical Committee (number of ethical approval: 147/2018). Compound 17 (25, 50, 75 mg/kg) was suspended in 1% Tween 80 in saline solution and was administered intraperitoneally (i.p.) 60 min before the test. […] Imipramine hydrochloride (30 mg/kg, Sigma-Aldrich was administered intraperitoneally (i.p.) 60 min before the test. […] Sigma-Aldrich, USA) was given subcutaneously (s.c.). Prior to administration, the agent was dissolved in saline and injected 30 min before the test. […] Motor coordination has been assessed in mice using the chimney test and the rotarod test, according to the procedure we had used before. […]

mice [2] = assay: Forced swim test (FST); settings: 60 min before the test
Experimental: The experiments were carried out on 6 weeks old naive Swiss male mice (Experimental Medicine Center (OMD), Lublin, Poland), weighing 28–30 g. The cages with mice were located in air-conditioned rooms maintaining the ambient temperature within the range of 23–25 °C. The animals were provided with a natural 12 h day/night cycle, replicating the day and night mode. Each testing group was represented by 8–10 animals, depending on the research schedule. All experiments were conducted according to the National Institute of Health Guidelines for the Care and Use of Laboratory Animals (8th edition) and to the European Community Council Directive for the Care and Use of Laboratory Animals of 22 September 2010 (2010/63/EU) and were approved by the Local Ethical Committee (number of ethical approval: 147/2018). Compound 17 (25, 50, 75 mg/kg) was suspended in 1% Tween 80 in saline solution and was administered intraperitoneally (i.p.) 60 min before the test. […] Imipramine hydrochloride (30 mg/kg, Sigma-Aldrich was administered intraperitoneally (i.p.) 60 min before the test. […] Sigma-Aldrich, USA) was given subcutaneously (s.c.). Prior to administration, the agent was dissolved in saline and injected 30 min before the test. Control animals received an (i.p.) or (s.c.) injection of a respective vehicle. All compounds were injected in a manner generally accepted in experimental pharmacology, in an amount of 10 mL/kg body weight. Forced Swim Test was carried out according to the method of Porsolt et al.. It is a standard behavioral test, called the resignation test, which is used to determine the effectiveness of antidepressant drugs in laboratory rodents. Each mouse was placed individually for 6 min into a glass cylinder (height 25 cm, diameter 10 cm) with 15 cm of water at 23–25 °C. After the first 2 min of the test, the total duration of immobility (in seconds) was measured. An animal was judged to be immobile when it ceased struggling and remained floating motionless and making only movements allowing it to keep the head just above the surface of the water.

mice [3] = assay: Spontaneous locomotor activity in mice; settings: for Distance Traveled after 10 min / Distance Traveled after 30 min: mean ± SEM, n=10
Experimental: The experiments were carried out on 6 weeks old naive Swiss male mice (Experimental Medicine Center (OMD), Lublin, Poland), weighing 28–30 g. The cages with mice were located in air-conditioned rooms maintaining the ambient temperature within the range of 23–25 °C. The animals were provided with a natural 12 h day/night cycle, replicating the day and night mode. Each testing group was represented by 8–10 animals, depending on the research schedule. All experiments were conducted according to the National Institute of Health Guidelines for the Care and Use of Laboratory Animals (8th edition) and to the European Community Council Directive for the Care and Use of Laboratory Animals of 22 September 2010 (2010/63/EU) and were approved by the Local Ethical Committee (number of ethical approval: 147/2018).
Compound 17 (25, 50, 75 mg/kg) was suspended in 1% Tween 80 in saline solution and was administered intraperitoneally (i.p.) 60 min before the test. Diazepam (DZ, Relanium, Polfa, Poland) at a dose of 1 mg/kg was diluted in 0.9% saline containing 1% Tween 80 and was administered subcutaneously (s.c.), 60 min before the test. Imipramine hydrochloride (30 mg/kg, Sigma-Aldrich was administered intraperitoneally (i.p.) 60 min before the test. D-amphetamine sulfate (3 mg/kg; Sigma-Aldrich, USA) was given subcutaneously (s.c.). Prior to administration, the agent was dissolved in saline and injected 30 min before the test. Control animals received an (i.p.) or (s.c.) injection of a respective vehicle. All compounds were injected in a manner generally accepted in experimental pharmacology, in an amount of 10 mL/kg body weight.
The measurement of the spontaneous locomotor activity was carried out using the OptoVarimex 4 Auto-Track device (Columbus Instruments, Columbus, OH, USA). Tested animals are kept in cages for 30 min. Their activity was recorded as interruptions of the light beams after 10 and 30 min of the test, and it was calculated automatically as a traveled distance in cm (±SEM). To determine whether compound 17 has an influence on amphetamine-induced hyperactivity, each mouse received 17 (25, 50 and 75 mg/kg; i.p.) and amphetamine (3 mg/kg; s.c.) 30 min after injection of 17 or vehicle and then spontaneous locomotor activity was measured.

[4] = 25 mg/kg i.p. 60 min before the test
[5] = 50 mg/kg i.p. 60 min before the test
[6] = 75 mg/kg i.p. 60 min before the test

Compound: O=C(CCN1C(=O)CSc2ccccc21)Nc1ccc(Cl)cc1 [Compound 17, N-(4-Chlorophenyl)-3-(3-oxo-2,3-dihydro-4H-benzo[b][1,4]thiazin-4-yl)propanamide]
- effect on behavior in the rotarod test (mice [1]): did not influence mice behavior
- effect on immobility time (mice [2]; 25 mg/kg i.p., p > 0.05): no statistically significant effect
- effect on total time of immobility vs control group (mice [2]; 50 mg/kg i.p., p < 0.001): significantly reduced
- effect on total time of immobility vs control group (mice [2]; 75 mg/kg i.p., p < 0.01): significantly reduced
- Distance Traveled after 10 min (mice [3]; [4]): 910.1 ± 139.3 cm
- Distance Traveled after 30 min (mice [3]; [4]): 2003 ± 355.7 cm
- Distance Traveled after 10 min (mice [3]; [5]): 855.9 ± 195.1 cm
- Distance Traveled after 30 min (mice [3]; [5]): 2345 ± 616.0 cm
- Distance Traveled after 10 min (mice [3]; [6]): 1200 ± 216.0 cm
- Distance Traveled after 30 min (mice [3]; [6]): 2983 ± 595.8 cm
- effect on locomotor activity versus the control group (mice [3]; 25, 50 and 75 mg/kg i.p., after 10 min and after 30 min): no statistically significant effects
